US20240133897A1, “COMPOSITIONS AND METHODS FOR IDENTIFYING AND MODULATING THROMBOTIC CONDITIONS IN A CANCER PATIENT” (Beth Israel Deaconess Medical Center, Inc., priority 2019, published 2024)

Legend:
HPAF-II cells [1] = assay: Flow cytometry of TF-bearing extracellular vesicles from HPAF-II cells after UPR induction; format: cell-based; details: for increase in the generation of TF-bearing EVs: HPAF-II cells following UPR induction, flow cytometry
Text: (§1) The unfolded protein response (UPR) is associated with malignant transformation in pancreatic cancer, but whether or not activation of the UPR is linked to cancer thrombosis has not previously been evaluated. To determine whether UPR signaling functions in the prothrombotic transformation of pancreatic cancer, pancreatic adenocarcinoma cells (HPAF-II cells) were exposed to three UPR inducers (tunicamycin, triptolide and thapsigargin) that act via independent mechanisms. […] Release of thrombogenic material was inhibited by siRNA-mediated knockdown of UPR components including IRE1α (80%±3% decrease) or PERK (60%±10% decrease). […] Apoptosis as detected by caspase-3 cleavage was not observed under these conditions.

HPAF-II cells [2] = assay: Thrombin generation by material released from HPAF-II cells after UPR induction; format: cell-based; details: for decrease in thrombin generation (release of thrombogenic material): HPAF-II cells, UPR induced, chemical inhibition or siRNA knockdown of UPR components; for increase in thrombin generation in pelleted material: pancreatic adenocarcinoma HPAF-II cells exposed to UPR inducers, supernatant pelleted material
Text: as §1

| Compound | inhibition of UPR-induced generation of TF-bearing EVs (HPAF-II cells [1]; HPAF-II cells, UPR induced) | decrease in thrombin generation (release of thrombogenic material) (HPAF-II cells [2]) | increase in thrombin generation in pelleted material (HPAF-II cells [2]) [fold] | increase in the generation of TF-bearing EVs (HPAF-II cells [1]) [fold] |
| --- | --- | --- | --- | --- |
| C[C@H]1CCC/C=C/[C@@H]2C[C@H](O)C[C@H]2[C@H](O)/C=C/C(=O)O1 [Brefeldin A] | inhibited |  |  |  |
| Cn1cc(-c2ccc3c(c2)CCN3C(=O)Cc2cccc(C(F)(F)F)c2)c2c(N)ncnc21 [GSK2606414] |  | 80%±5% |  |  |
| CN1CCN(C(=O)c2ccc(-c3ccc4c(C=O)c(O)ccc4c3)s2)CC1 [MKC-3946] |  | 70%±10% |  |  |
| C/C=C(/C)C(=O)O[C@H]1C(C)=C2[C@H]([C@@H]1OC(=O)CCCCCCC)[C@@](C)(OC(C)=O)C[C@H](OC(=O)CCC)[C@@]1(O)[C@H]2OC(=O)[C@@]1(C)O [thapsigargin] |  |  | 3 | 3 |
| CC(C)[C@]12O[C@H]1[C@@H]1O[C@]13[C@]1(O[C@H]1C[C@H]1C4=C(CC[C@@]13C)C(=O)OC4)[C@@H]2O [triptolide] |  |  | 3 | 3 |
| tunicamycin |  |  | 3 | 3 |
